Laboratory results reported in patent US20160208330A1, “IDENTIFYING MARKERS OF CALORIC RESTRICTION AND CALORIC RESTRICTION MIMETICS” (NSE Products, Inc., priority 2011, published 2016).

Tested on: genes listed in Table 6 (CR marker panel), white adipose tissue
Experiment: Testing ingredients for mimicry of caloric restriction: feeding study, RT-qPCR of the Table 6 gene panel in white adipose tissue, fold change as percentage of the fold change in the CR group
Assay type: in vivo, C57BL/6J mice
Parameters: key to Avg. CRMI: points per gene: 11-20% mimicry = 1, 21-30% = 2...; opposite effect negative
Conditions: for Avg. CRMI: CR Mimetic Index, points per gene from mimicry score plus five points for significance; for Avg. mimicry: average over significantly changed genes; for CMII: mimetic index = average mimicry (fraction of CR) x number of significantly changed genes
Excerpt: C57BL/6J mice were purchased from Jackson Laboratories at 6 weeks of age and maintained as described previously in Barger J L, et al. (2008) A Low Dose of Dietary Resveratrol Partially Mimics Caloric Restriction and Retards Aging Parameters in Mice. PLoS ONE 3(6): e2264 (http://dx.doi.org/10.1371/journal.pone.0002264). Briefly, mice were individually housed in shoebox cages and provided with 24 grams (˜84 kcal) of AIN-93M diet per week (7 grams on Monday and Wednesday and 10 grams on Friday). Starting at 8 weeks of age and continuing until 22 weeks of age, mice were either a) maintained on the AIN-93M diet (control group), b) fed a Calorie Restricted (CR) diet providing 63 kcal/week of a modified AIN93M from 8-16 weeks of age and then further reduced to a diet providing 49 kcal/week of a modified AIN93M from 16-22 weeks of age; or c) were assigned to an AIN93M diet supplemented with one of the following test ingredients: 1) bezafibrate at a dose of 5,000 mg/kg diet; 2) metformin at a dose of 1,909 mg/kg diet; 3) L-carnitine at a dose of 1,800 mg/kg diet; 4) blood orange extract at a dose of 18 mg/kg of body weight; 5) purple corn extract at a dose of 22 mg/kg of body weight; 6) resveratrol at a dose of 30 mg/kg of body weight; and 7) quercetin at a dose of 17.6 mg/kg of body weight. At 22 weeks of age, tissues were collected from the mice, flash-frozen in liquid nitrogen and stored at −80° C. for later analysis.
In order to screen the ingredients for their ability to mimic CR, quantitative real-time PCR (RT-qPCR) analysis was performed on RNA isolated from white adipose tissue from all groups of mice. Experimental methods and data analysis for RT-qPCR experiments have been published previously in Barger, J L et al., (2008) Short-term consumption of a resveratrol-containing nutraceutical mixture mimics gene expression of long-term caloric restriction in mouse heart, Exp. Gerontology 43(9):859 (http://dx.doi.org/10.1016/j.exger.2008.06.013). Briefly, the magnitude of change in gene expression was determined for each of the genes listed in Table 6 for the CR and treatment groups compared to the control animals. Two-tailed t-tests (assuming equal variance) were used to determine if the change in expression for individual genes was statistically significant. The magnitude of the change in expression (“fold change”) values were log2-adjusted to fit normality assumptions for statistical analyses.
CR mimicry was expressed as the fold change observed in each gene for the test group as a percentage of the fold change observed for that gene in the CR group.
The ingredients tested were based on their mimetic effect across the gene panel.
Another ranking approach was used to reflect effects across all genes. A CR Mimetic Index (CRMI) was calculated per gene for each ingredient by assigning each a number of points based on its mimicry score for each gene. Positive points were given for positive mimicry values (11 to 20%=1 point, 21 to 30%=2 points, 31 to 40%=3 points, and so on). Negative mimicry values (i.e. where the gene expression effect was opposite that observed for CR) received corresponding negative scores (i.e. −11 to −20%=−1 point, −21 to −30%=−2 points, −31 to −40%=[…], and so on). Five points were added for statistical significance of a mimicry value.
In the experimental protocol of Example 2, bezafibrate at 5,000 mg/kg diet was also compared to lower doses (100 and 500 mg/kg).
Mimetic indices were calculated for the 500 mg/kg and 100 mg/kg doses as in Example 2.

[1] = 100 mg/kg diet, white adipose tissue
[2] = 500 mg/kg diet, white adipose tissue
[3] = 5000 mg/kg diet, white adipose tissue
[4] = fold change as percentage of CR fold change, white adipose tissue
[5] = white adipose tissue, RT-qPCR, C57BL/6J mice fed from 8 to 22 weeks of age, ingredient doses, only significantly changed genes shown
[6] = white adipose tissue, Table 6 gene panel, diet supplemented from 8 to 22 weeks of age, doses (bezafibrate 5,000 mg/kg diet)

CC(C)(Oc1ccc(CCNC(=O)c2ccc(Cl)cc2)cc1)C(=O)O [Bezafibrate, bezafibrate]
CR mimicry Acaca [1]: 20% | CR mimicry Cd68 [1]: 58% | CR mimicry Gpd2 [1]: 23% | CR mimicry Ifi27I2a [1]: 39% | CR mimicry Acaca [2]: 23% | CR mimicry Acss2 [2]: 17% | CR mimicry Gpd2 [2]: 31% | CR mimicry Me1 [2]: 18% | CR mimicry Nampt [2]: 87% | CR mimicry Parm1 [2]: 19% | CR mimicry Slc2a4 [2]: 69% | CR mimicry Acaca [3]: 59% | CR mimicry Acss2 [3]: 21% | CR mimicry Cd68 [3]: 58% | CR mimicry Gpd2 [3]: 93% | CR mimicry Ifi27I2a [3]: 75% | CR mimicry Me1 [3]: 24% | CR mimicry Nampt [3]: 233% | CR mimicry Ndufs4 [3]: 108% | CR mimicry Parm1 [3]: 47% | CR mimicry Slc2a4 [3]: 113% | Avg. CRMI: 128 | Avg. mimicry [4]: 83% | Avg. CRMI (CR Mimetic Index, points per gene) (bezafibrate 100 mg/kg diet): 28 | CMII (average mimicry as fraction of CR x number of significantly changed genes) (bezafibrate 100 mg/kg diet): 1.4 | Avg. mimicry (bezafibrate 100 mg/kg diet): 35% | No. of genes significantly changed (bezafibrate 100 mg/kg diet, white adipose tissue gene panel): 4 | Avg. CRMI (CR Mimetic Index, points per gene) (bezafibrate 500 mg/kg diet): 68 | CMII (average mimicry as fraction of CR x number of significantly changed genes) (bezafibrate 500 mg/kg diet): 2.6 | Avg. mimicry (bezafibrate 500 mg/kg diet): 38% | No. of genes significantly changed (bezafibrate 500 mg/kg diet, white adipose tissue gene panel): 7 | Avg. CRMI (CR Mimetic Index, points per gene) (bezafibrate 5000 mg/kg diet): 128 | CMII (average mimicry as fraction of CR x number of significantly changed genes) (bezafibrate 5000 mg/kg diet): 8.3 | Avg. mimicry (bezafibrate 5000 mg/kg diet): 83% | No. of genes significantly changed (bezafibrate 5000 mg/kg diet, white adipose tissue gene panel): 10 | CMII: 8.3 | CR mimicry, Acaca (fold change as percentage of the fold change in the CR group) [5]: 59% | CR mimicry, Acss2 (fold change as percentage of the fold change in the CR group) [5]: 21% | CR mimicry, Cd68 (fold change as percentage of the fold change in the CR group) [5]: 58% | CR mimicry, Gpd2 (fold change as percentage of the fold change in the CR group) [5]: 93% | CR mimicry, Ifi27I2a (fold change as percentage of the fold change in the CR group) [5]: 75% | CR mimicry, Me1 (fold change as percentage of the fold change in the CR group) [5]: 24% | CR mimicry, Nampt (fold change as percentage of the fold change in the CR group) [5]: 233% | CR mimicry, Ndufs4 (fold change as percentage of the fold change in the CR group) [5]: 108% | CR mimicry, Parm1 (fold change as percentage of the fold change in the CR group) [5]: 47% | CR mimicry, Slc2a4 (fold change as percentage of the fold change in the CR group) [5]: 113% | No. of genes significantly changed [6]: 10

C[N+](C)(C)C[C@H](O)CC(=O)[O-] [L-carnitine]
Avg. CRMI: 55 | Avg. mimicry [4]: 31% | CMII: 2.2 | CR mimicry, Acaca (fold change as percentage of the fold change in the CR group) [5]: 5% | CR mimicry, Gpd2 (fold change as percentage of the fold change in the CR group) [5]: 15% | CR mimicry, Nampt (fold change as percentage of the fold change in the CR group) [5]: 84% | CR mimicry, Ndufs4 (fold change as percentage of the fold change in the CR group) [5]: 40% | CR mimicry, Parm1 (fold change as percentage of the fold change in the CR group) [5]: 3% | CR mimicry, Serpine1 (fold change as percentage of the fold change in the CR group) [5]: 52% | CR mimicry, Slc2a4 (fold change as percentage of the fold change in the CR group) [5]: 16% | No. of genes significantly changed [6]: 7

CN(C)C(=N)N=C(N)N [Metformin, metformin]
Avg. CRMI: 31 | Avg. mimicry [4]: 16% | CMII: 0.6 | CR mimicry, Acaca (fold change as percentage of the fold change in the CR group) [5]: 17% | CR mimicry, Gpd2 (fold change as percentage of the fold change in the CR group) [5]: 27% | CR mimicry, Me1 (fold change as percentage of the fold change in the CR group) [5]: 11% | CR mimicry, Parm1 (fold change as percentage of the fold change in the CR group) [5]: 10% | No. of genes significantly changed [6]: 4

O=c1c(O)c(-c2ccc(O)c(O)c2)oc2cc(O)cc(O)c12 [Quercetin, quercetin]
Avg. CRMI: 17 | Avg. mimicry [4]: 20% | CMII: 0.4 | ranking of CR mimicry among tested ingredients (ranking by mimetic index (CMII), Table 8): lowest degree of CR mimicry | CR mimicry, Gpd2 (fold change as percentage of the fold change in the CR group) [5]: 5% | CR mimicry, Slc2a4 (fold change as percentage of the fold change in the CR group) [5]: 35% | No. of genes significantly changed [6]: 2

Oc1ccc(C=Cc2cc(O)cc(O)c2)cc1 [Resveratrol, resveratrol]
Avg. CRMI: 35 | Avg. mimicry [4]: 34% | CMII: 1.38 | CR mimicry, Acaca (fold change as percentage of the fold change in the CR group) [5]: 8% | CR mimicry, Gpd2 (fold change as percentage of the fold change in the CR group) [5]: 10% | CR mimicry, Nampt (fold change as percentage of the fold change in the CR group) [5]: 65% | CR mimicry, Serpine1 (fold change as percentage of the fold change in the CR group) [5]: 55% | No. of genes significantly changed [6]: 4
